Experimental data published in US20260234115A1, “LIPID COMPOUNDS, COMPOSITIONS, AND USES THEREOF” (Liberate Bio, Inc., priority 2023, published 2026).
Marks after values point to notes of the source that are not given here.

How the values were obtained:
[1] = Dynamic light scattering: LNP particle size and PDI; assay type: physicochemical; conditions: for PDI N/P:6 / Size (nm) N/P:6 / PDI N/P:3 / Size (nm) N/P:3: LNP
Method: (§1) Lipids and active ingredients (e.g., RNA, DNA, etc.) were assembled into LNPs using microfluidic mixing. An ethanol phase was prepared by solubilizing ionizable lipids (i.e., lipid compounds), phospholipids (e.g., DSPC), cholesterol, and PEG lipids in ethanol, at predetermined mol % ratios given in Table 2. An aqueous phase was prepared by diluting a nucleic acid cargo (e.g., firefly luciferase mRNA) in an acidified buffer (pH 4.0 citrate buffer, 50 mM). A chip with microfluidic mixing architecture (e.g., toroidal mixer) was used to mix the two phases at predetermined flow rate ratios (e.g., 9 ml/min for the aqueous phase and 3 ml/min for the ethanol phase). Resulting LNPs comprising the lipids and encapsulating the nucleic acid cargo were dialyzed against PBS pH 7.4 for 2 hours at room temperature in a 20 kDa MWCO dialysis membrane. Then, PBS was refreshed to continue dialysis overnight at 2-8 TC. Upon completion of the buffer exchange, LNPs were optionally concentrated using a ultracentrifugal unit with a 10-100 kDa MWCO membrane.
d. Dynamic Light Scattering
LNPs were diluted with PBS pH 7.4 to predetermined dilution ranges based on the process step and LNP concentration. Following mixing, the particle size and PDI were measured by a dynamic light scattering instrument.

[2] = Plate-based fluorescence (RiboGreen) assay: nucleic acid cargo content and encapsulation efficiency of LNPs; assay type: physicochemical; conditions: for EE (%) N/P:6 / EE (%) N/P:3: LNP
Method: as §1
c. Plate-Based Fluorescence (RiboGreen) Assay
Nucleic acid cargos in the LNPs were quantified by RiboGreen assay, against a nucleic acid standard curve. LNPs encapsulating nucleic acid cargo were mixed with 1× Tris-EDTA (TE) and 2% triton in TE, separately, to achieve dilutions required by the assay. Then, the samples were heated at 30° C. and vortexed at 300 rpm. Samples were plated into 96-well plates and RiboGreen reagent was added into each well. Following incubation in the dark, fluorescence was measured from the wells, and plotted against the standard curve. Nucleic acid concentration obtained from the Triton-treated samples were used for total cargo concentration quantification. Only TE diluted sample fluorescence values were used to determine the non-encapsulated (free) cargo, and their ratio was used to determine the encapsulation efficiency (EE %).

mouse organs = assay: In vivo activity screening in mice: organ mean total flux (p/s) of luciferase activity after injection of F2 LNP pools (Table 6, FIG. 7A-7C); conditions: luciferase mRNA
Method in brief: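 C57BL/6J mice given one tail-vein injection of pooled Formulation F2 LNPs carrying firefly luciferase mRNA (0.25-3 mg/kg) in PBS. At 4-6 h, s.c. D-luciferin given; organs imaged ex vivo by IVIS within 10-15 min, after saline cardiac perfusion. Mean total flux (p/s) per organ ROI.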

[3] = LNP compositions for Formulation F2 Study
[4] = LNP compositions for in vivo mouse study, four formulations (F1-F4) of the lipid compound pooled, or pools of four compounds (sixteen compositions)
[5] = LNP compositions for in vivo mouse study, four formulations (F1-F4) pooled, or pools of four compounds

| Particle Size (nm) [1, 4] [nm] | PDI [1, 5] | PDI N/P:6 ([1]; Formulation F1, N/P 6) | Size (nm) N/P:6 ([1]; Formulation F1, N/P 6) [nm] | PDI N/P:6 ([1]; Formulation F2, N/P 6) | Size (nm) N/P:6 ([1]; Formulation F2, N/P 6) [nm] | PDI N/P:6 ([1]; Formulation F3, N/P 6) | Size (nm) N/P:6 ([1]; Formulation F3, N/P 6) [nm] | PDI N/P:6 ([1]; Formulation F4, N/P 6) | Size (nm) N/P:6 ([1]; Formulation F4, N/P 6) [nm] | EE % [2, 5] [%] | mRNA Content [2, 5] [µg/mL] | EE (%) N/P:6 ([2]; Formulation F1, N/P 6) [%] | EE (%) N/P:6 ([2]; Formulation F2, N/P 6) [%] | EE (%) N/P:6 ([2]; Formulation F3, N/P 6) [%] | EE (%) N/P:6 ([2]; Formulation F4, N/P 6) [%] | Compound | Organ Mean Total Flux Femur (mouse organs; Mouse 1, dose 0.3 mg/kg) | Organ Mean Total Flux Heart (mouse organs; Mouse 1, dose 0.3 mg/kg) | Organ Mean Total Flux Kidney (mouse organs; Mouse 1, dose 0.3 mg/kg) | Organ Mean Total Flux Liver (mouse organs; Mouse 1, dose 0.3 mg/kg) | further results |
| --- | --- | --- | --- | --- | --- | --- | --- | --- | --- | --- | --- | --- | --- | --- | --- | --- | --- | --- | --- | --- | --- |
| 101 | 0.07 | 0.08 | 87 ± 6 | 0.06 | 117 ± 4 | 0.12 | 100 ± 2 | 0.19 | 79 ± 1 | 97 | 108 | 100 | 99 | 95 | 99 | CCCCC/C=C\CCOC(=O)CCCCCC(=O)OCC(COC(=O)CCCCCC(=O)OCC/C=C\CCCCC)(COC(=O)CCC(CCCCCC)OC(=O)NCCN1CCCC1)COC(=O)CC12CC3CC(CC(C3)C1)C2 (stereo not drawn) [Compound 8, O7-[2-[[2-(1-adamantyl)acetyl]oxymethyl]-2-[[7-[(Z)-non-3-enoxy]-7-oxo-heptanoyl]oxymethyl]-3-[4-(2-pyrrolidin-1-ylethylcarbamoyloxy)decanoyloxy]propyl]O1-[(Z)-non-3-enyl]heptanedioate] | 11.1 p/s (×10^6) | 2.8 p/s (×10^6) | 0.8 p/s (×10^6) | 72.4 p/s (×10^6) | PDI [1, 3]: 0.071; Particle Size (nm) [1, 3]: 119 nm; EE % [2, 3]: 98%; Organ Mean Total Flux Lung (mouse organs; Mouse 1, dose 0.3 mg/kg): 20.1 p/s (×10^6); Organ Mean Total Flux Muscle (mouse organs; Mouse 1, dose 0.3 mg/kg): 22.7 p/s (×10^6); Organ Mean Total Flux Pancreas (mouse organs; Mouse 1, dose 0.3 mg/kg): 4.4 p/s (×10^6); Organ Mean Total Flux Spleen (mouse organs; Mouse 1, dose 0.3 mg/kg): 10.7 p/s (×10^6); Organ Mean Total Flux Femur (mouse organs; Mouse 14, dose 0.5 mg/kg): 9.8 p/s (×10^6); Organ Mean Total Flux Heart (mouse organs; Mouse 14, dose 0.5 mg/kg): 2.2 p/s (×10^6); Organ Mean Total Flux Kidney (mouse organs; Mouse 14, dose 0.5 mg/kg): 3.6 p/s (×10^6); Organ Mean Total Flux Liver (mouse organs; Mouse 14, dose 0.5 mg/kg): 257.0 p/s (×10^6); Organ Mean Total Flux Lung (mouse organs; Mouse 14, dose 0.5 mg/kg): 6.4 p/s (×10^6); Organ Mean Total Flux Muscle (mouse organs; Mouse 14, dose 0.5 mg/kg): 46.9 p/s (×10^6); Organ Mean Total Flux Pancreas (mouse organs; Mouse 14, dose 0.5 mg/kg): 4.0 p/s (×10^6); Organ Mean Total Flux Spleen (mouse organs; Mouse 14, dose 0.5 mg/kg): 10.4 p/s (×10^6) |
| 89.9 | 0.143 | 0.072 | 74 ± 1 | 0.069 | 89 ± 2 | 0.051 | 107 ± 3 | 0.151 | 58 ± 2 | 99 | 102.4 | 100 | 100 | 100 | 100 | CCCCCCCC/C=C\CCCCCCCC(=O)OCC(COC(=O)CCCCCCC/C=C\CCCCCCCC)(COC(=O)CCCCCCC/C=C\CCCCCCCC)COC(=O)CCC(CCCCCC)OC(=O)NCCN1CCCC1 (stereo not drawn) [Compound 1, 2-((oleoyloxy)methyl)-2-(((4-(((2-(pyrrolidin-1-yl)ethyl)carbamoyl)oxy)decanoyl)oxy)methyl)propane-1,3-diyl dioleate] | 0.8 p/s (×10^6) | 0.1 p/s (×10^6) | 0.1 p/s (×10^6) | 17.5 p/s (×10^6) | PDI N/P:3 ([1]; Formulation F1, N/P 3): 0.084; Size (nm) N/P:3 ([1]; Formulation F1, N/P 3): 85 ± 4 nm; PDI N/P:3 ([1]; Formulation F2, N/P 3): 0.052; Size (nm) N/P:3 ([1]; Formulation F2, N/P 3): 99 ± 2 nm; PDI N/P:3 ([1]; Formulation F3, N/P 3): 0.037; Size (nm) N/P:3 ([1]; Formulation F3, N/P 3): 136 ± 3 nm; PDI N/P:3 ([1]; Formulation F4, N/P 3): 0.153; Size (nm) N/P:3 ([1]; Formulation F4, N/P 3): 78 ± 1 nm; EE (%) N/P:3 ([2]; Formulation F1, N/P 3): 97%; EE (%) N/P:3 ([2]; Formulation F2, N/P 3): 98%; EE (%) N/P:3 ([2]; Formulation F3, N/P 3): 97%; EE (%) N/P:3 ([2]; Formulation F4, N/P 3): 98%; Organ Mean Total Flux Lung (mouse organs; Mouse 1, dose 0.3 mg/kg): 0.5 p/s (×10^6); Organ Mean Total Flux Muscle (mouse organs; Mouse 1, dose 0.3 mg/kg): 0.6 p/s (×10^6); Organ Mean Total Flux Pancreas (mouse organs; Mouse 1, dose 0.3 mg/kg): 0.2 p/s (×10^6); Organ Mean Total Flux Spleen (mouse organs; Mouse 1, dose 0.3 mg/kg): 1.7 p/s (×10^6) |
| 89.1 | 0.08 | 0.09 | 74 ± 1 | 0.01 | 92 ± 1 | 0.07 | 102 ± 1 | 0.14 | 73 ± 1 | 96 | 83 | 98 | 99 | 98 | 98 | CCCCCCCC/C=C\CCCCCCCC(=O)OCC(COC(=O)CCCCCCC/C=C\CCCCCCCC)(COC(=O)CCC(CCCCCC)OC(=O)NCCN1CCCC1)COC(=O)CC12CC3CC(CC(C3)C1)C2 (stereo not drawn) [Compound 3, [2-[[2-(1-adamantyl)acetyl]oxymethyl]-2-[[(Z)-octadec-9-enoyl]oxymethyl]-3-[4-(2-pyrrolidin-1ylethylcarbamoyloxy)decanoyloxy]propyl](Z)-octadec-9-enoate] | 1.3 p/s (×10^6) | 0.1 p/s (×10^6) | 0.1 p/s (×10^6) | 29.1 p/s (×10^6) | Organ Mean Total Flux Lung (mouse organs; Mouse 1, dose 0.3 mg/kg): 0.7 p/s (×10^6); Organ Mean Total Flux Muscle (mouse organs; Mouse 1, dose 0.3 mg/kg): 0.5 p/s (×10^6); Organ Mean Total Flux Pancreas (mouse organs; Mouse 1, dose 0.3 mg/kg): 0.2 p/s (×10^6); Organ Mean Total Flux Spleen (mouse organs; Mouse 1, dose 0.3 mg/kg): 1.4 p/s (×10^6) |
| 82.6 | 0.125 | 0.14 | 73 ± 7 | 0.07 | 82 ± 2 | 0.04 | 92 ± 0 | 0.15 | 64 ± 0 | 96 | 84 | 99 | 99 | 98 | 99 | CCCCC/C=C\CCOC(=O)CCCCCC(=O)OCC(COC(=O)CCCCCCOC(=O)C(CCCC)CCCCCC)(COC(=O)CCCCCC(=O)OCC/C=C\CCCCC)COC(=O)CCC(CCCCCC)OC(=O)NCCN1CCCC1 (stereo not drawn) [Compound 16, O7-[2-[7-(2-butyloctanoyloxy)heptanoyloxymethyl]-2-[[7-[(Z)-non-3-enoxy]-7-oxo-heptanoyl]oxymethyl]-3-[4-(2-pyrrolidin-1-ylethylcarbamoyloxy)decanoyloxy]propyl]O1-[(Z)-non-3-enyl]heptanedioate] | – | – | – | – | – |
